For data set [1], the system named is Human immunodeficiency virus 1. As to the kind of experiment: Antiviral activity against R5 tropic HIV1 BaL infected in human PBMC. The settings on record: Human immunodeficiency virus 1, BaL. The data set is classed as functional, organism-based.
The target in data set [2] is C-C chemokine receptor type 5 (Homo sapiens, UniProt P51681). As to the kind of experiment: Inhibition of human CCR5 expressed in CHO cells assessed as inhibition of RANTES-stimulated [35S]GTPgammaS binding. The class given is functional, cell-based. For orientation: GTPγS resists hydrolysis and so accumulates on activated G proteins.
Data set [3] concerns the target hERG (KCNH2) (Homo sapiens, UniProt Q12809). As to the kind of experiment: Inhibition of human ERG at 1 uM.
Data set [4] can be described thus: Cytotoxicity against human PBMC. The class given is cell-based.

The results in this text go back to ChEMBL document CHEMBL1221291, “Studies on the structure-activity relationship of 1,3,3,4-tetra-substituted pyrrolidine embodied CCR5 receptor antagonists. Part 2: Discovery of highly potent anti-HIV agents” (Bioorg Med Chem Lett, 2010).

The structures appear in SMILES notation.

Sequence of hERG (KCNH2) (Q12809 whole entry): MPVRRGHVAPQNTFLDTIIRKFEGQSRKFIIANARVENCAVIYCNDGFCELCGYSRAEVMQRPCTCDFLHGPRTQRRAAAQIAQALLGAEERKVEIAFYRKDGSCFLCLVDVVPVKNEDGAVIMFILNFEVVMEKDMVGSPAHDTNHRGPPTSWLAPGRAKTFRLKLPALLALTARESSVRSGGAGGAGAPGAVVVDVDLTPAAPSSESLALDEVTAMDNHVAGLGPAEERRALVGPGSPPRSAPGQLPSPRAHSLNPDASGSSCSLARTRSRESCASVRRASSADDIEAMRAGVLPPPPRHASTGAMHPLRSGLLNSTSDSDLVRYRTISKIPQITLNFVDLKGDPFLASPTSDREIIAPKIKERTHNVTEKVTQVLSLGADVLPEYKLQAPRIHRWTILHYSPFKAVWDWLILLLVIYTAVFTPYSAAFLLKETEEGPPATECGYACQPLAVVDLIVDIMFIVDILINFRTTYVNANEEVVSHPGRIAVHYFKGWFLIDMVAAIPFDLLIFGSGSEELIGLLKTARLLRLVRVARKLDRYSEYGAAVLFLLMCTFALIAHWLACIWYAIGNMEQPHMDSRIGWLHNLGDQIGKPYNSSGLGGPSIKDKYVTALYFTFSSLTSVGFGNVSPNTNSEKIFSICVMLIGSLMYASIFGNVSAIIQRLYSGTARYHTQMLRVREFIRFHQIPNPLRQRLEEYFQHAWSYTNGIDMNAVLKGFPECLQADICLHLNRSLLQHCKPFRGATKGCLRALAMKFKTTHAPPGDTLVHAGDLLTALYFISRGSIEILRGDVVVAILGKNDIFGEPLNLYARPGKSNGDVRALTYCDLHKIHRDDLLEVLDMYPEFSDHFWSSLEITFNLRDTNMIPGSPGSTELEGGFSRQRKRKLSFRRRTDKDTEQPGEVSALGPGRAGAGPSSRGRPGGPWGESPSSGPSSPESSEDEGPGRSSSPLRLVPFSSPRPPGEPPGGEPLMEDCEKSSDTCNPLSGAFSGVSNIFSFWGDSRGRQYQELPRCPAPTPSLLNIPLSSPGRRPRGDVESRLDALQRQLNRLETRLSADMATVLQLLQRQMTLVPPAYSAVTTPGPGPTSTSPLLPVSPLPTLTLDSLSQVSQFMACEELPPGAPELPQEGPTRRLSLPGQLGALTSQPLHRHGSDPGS
Sequence of C-C chemokine receptor type 5 (P51681 whole entry): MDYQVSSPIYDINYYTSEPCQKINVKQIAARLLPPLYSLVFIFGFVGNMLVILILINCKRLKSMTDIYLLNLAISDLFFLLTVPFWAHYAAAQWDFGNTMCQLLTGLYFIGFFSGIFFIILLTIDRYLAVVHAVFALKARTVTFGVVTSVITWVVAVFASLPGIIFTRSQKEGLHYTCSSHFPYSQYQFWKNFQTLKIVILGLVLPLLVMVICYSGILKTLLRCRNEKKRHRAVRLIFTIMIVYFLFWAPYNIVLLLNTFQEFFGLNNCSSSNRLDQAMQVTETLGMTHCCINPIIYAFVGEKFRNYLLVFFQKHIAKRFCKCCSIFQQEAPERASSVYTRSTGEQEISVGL

The compound `C=CCN(C(=O)OCc1ccc([N+](=O)[O-])cc1)C1CCN(C[C@H]2CN(C(=O)C3CCCC3)C[C@]2(O)c2ccc(OC)cc2)CC1` yielded a concentration for a half-maximal effect (EC50) in data set [1] of more than 100 nM. Besides, in data set [2], the half-maximal inhibitory concentration (IC50) stood at 318 nM.
`C=CCN(C(=O)OCc1ccc([N+](=O)[O-])cc1)C1CCN(C[C@H]2CN(C(=O)C3CCCC3)C[C@]2(O)c2ccc(F)cc2)CC1`: the EC50 in data set [1] was more than 100 nM. In data set [2], the half-inhibitory concentration (IC50) came out at 30 nM.
`C=CCN(C(=O)OCc1ccc([N+](=O)[O-])cc1)C1CCN(C[C@H]2CN(C(=O)C3CCCC3)C[C@]2(O)c2cccc(F)c2)CC1` gave an EC50 in data set [1] of less than 0.4 nM. Besides, in data set [2], the IC50 came to 8.85 nM.
The matching figures for `C=CCN(C(=O)NCc1ccc(C(F)(F)F)cc1)C1CCN(C[C@H]2CN(C(=O)C3CCCC3)C[C@]2(O)c2ccc(F)cc2)CC1`: 20 nM and 38.3 nM.
The matching figures for `C=CCN(C(=O)NCc1ccc(C(F)(F)F)cc1)C1CCN(C[C@H]2CN(C(=O)C3CCCC3)C[C@]2(O)c2cccc(F)c2)CC1`: 6 nM and 1.38 nM.
For `C=CCN(C(=O)Cc1ccc(S(=O)(=O)NC)cc1)C1CCN(C[C@H]2CN(C(=O)C3CCCC3)C[C@]2(O)c2ccc(F)cc2)CC1` the same measures were more than 100 nM and 11.2 nM.
Regarding `C=CCN(C(=O)Cc1ccc(S(=O)(=O)NC)cc1)C1CCN(C[C@H]2CN(C(=O)C3CCCC3)C[C@]2(O)c2cccc(F)c2)CC1`, the EC50 in data set [1] worked out at 4.5 nM. For the same compound, the IC50 in data set [2] turned out to be 2.98 nM.
`C=CCN(C(=O)NCc1ccc(C(F)(F)F)cc1)[C@H]1C[C@H]2CC[C@@H](C1)N2C[C@H]1CN(C(=O)C2CCCC2)C[C@]1(O)c1cccc(F)c1` gave an EC50 in data set [1] of less than 0.005 nM. Also, the inhibition at 1 µM in data set [3] came out at 89.5%. For the same compound, the IC50 in data set [2] was determined as 6.77 nM. This compound also yielded a CC50 in data set [4] of 12500 nM.
`C=CCN(C(=O)NCc1ccc(S(=O)(=O)N(C)C)cc1)[C@H]1C[C@H]2CC[C@@H](C1)N2C[C@H]1CN(C(=O)C2CCCC2)C[C@]1(O)c1cccc(F)c1` yielded an EC50 in data set [1] of 0.0055 nM. This compound also displayed an inhibition at 1 µM in data set [3] of 31.3%. In addition, in data set [2], the IC50 was found to be 11.4 nM. In addition, the CC50 in data set [4] turned out to be 55000 nM.
Turning to `C=CCN(C(=O)NCc1ccc(F)cc1)[C@H]1C[C@H]2CC[C@@H](C1)N2C[C@H]1CN(C(=O)C2CCCC2)C[C@]1(O)c1cccc(F)c1`, the EC50 in data set [1] was determined as 1.75 nM. In data set [2], the IC50 is 30 nM. In data set [4], it took 42000 nM to reach half-maximal cytotoxicity (CC50).
Turning to `C=CCN(C(=O)NCc1ccc(C(F)(F)F)cc1)[C@@H]1C[C@H]2CC[C@@H](C1)N2C[C@H]1CN(C(=O)C2CCCC2)C[C@]1(O)c1cccc(F)c1`, in data set [1], the EC50 was more than 100 nM. Also, the inhibition at 1 µM in data set [3] is 88.6%. For the same compound, in data set [2], the IC50 turned out to be 14.3 nM. Besides, the CC50 in data set [4] came to 103000 nM.
As to `C=CCN(C(=O)OCc1ccc([N+](=O)[O-])cc1)C1CCN(C[C@H]2CN(C(=O)C3CCCC3)C[C@]2(O)c2ccccc2)CC1` [NIFEVIROC], the EC50 in data set [1] is less than 0.4 nM.

Broadly, the EC50 is the concentration needed to bring the measured effect to its halfway point. In general, IC50 refers to the concentration that inhibits the measured activity by half. In general, inhibition refers to the relative decrease from the control value, in per cent. Usually CC50 stands for the concentration at which the toxic effect on the cells reaches its halfway point.
